Experimental data from patent US10618887B2 (Sunesis Pharmaceuticals, Inc., priority 2012, dated 2020).

Experiments:
BTK = target: T1, BTK (Homo sapiens, UniProt Q06187); assay: In vitro BTK kinase assay: BTK-POLYGAT-LS assay; type: biochemical; settings: ATP 10 uM, polyGAT 100 nM, BTK 0.25 nM, 30 minutes; read-out: IC50 against BTK (polyGAT assay)
T1 construct: purchased Upstate 14-552
Method: In vitro BTK kinase assay: BTK-POLYGAT-LS ASSAY. The purpose of the BTK in vitro assay was to determine compound potency against BTK through the measurement of IC50. Compound inhibition was measured after monitoring the amount of phosphorylation of a fluorescein-labeled polyGAT peptide (Invitrogen PV3611) in the presence of active BTK enzyme (Upstate 14-552), ATP, and inhibitor. The BTK kinase reaction was done in a black 96 well plate (costar 3694). For a typical assay, a 24 uL aliquot of an ATP/peptide master mix (final concentration; ATP 10 uM, polyGAT 100 nM) in kinase buffer (10 mM Tris-HCl pH 7.5, 10 mM MgCl2, 200 uM […], 5 mM DTT, 0.01% Triton X-100, and 0.2 mg/ml casein) was added to each well. Next, 1 uL of a 4-fold, 40× compound titration in 100% DMSO solvent was added, followed by adding 15 uL of BTK enzyme mix in 1× kinase buffer (with a final concentration of 0.25 nM). The assay was incubated for 30 minutes before being stopped with 28 uL of a 50 mM EDTA solution. Aliquots (5 uL) of the kinase reaction were transferred to a low volume white 384 well plate (Corning 3674), and 5 uL of a 2× detection buffer (Invitrogen PV3574, with 4 nM Tb-PY20 antibody, Invitrogen PV3552) was added. The plate was covered and incubated for 45 minutes at room temperature. Time resolved fluorescence (TRF) on Molecular Devices M5 (332 nm excitation; 488 nm emission; 518 nm fluorescein emission) was measured. IC50 values were calculated using a four parameter fit with 100% enzyme activity determined from the DMSO control and 0% activity from the EDTA control.

human PXR = target: T2, human PXR (Homo sapiens, UniProt O75469); assay: PXR nuclear receptor activation reporter gene assay in human DPX2 cells; type: cell-based; settings: 24 hr treatment
T2 construct: expressed in transfected cells; host or cells: DPX2 tumor cell line
T2 sequence (O75469 1-434): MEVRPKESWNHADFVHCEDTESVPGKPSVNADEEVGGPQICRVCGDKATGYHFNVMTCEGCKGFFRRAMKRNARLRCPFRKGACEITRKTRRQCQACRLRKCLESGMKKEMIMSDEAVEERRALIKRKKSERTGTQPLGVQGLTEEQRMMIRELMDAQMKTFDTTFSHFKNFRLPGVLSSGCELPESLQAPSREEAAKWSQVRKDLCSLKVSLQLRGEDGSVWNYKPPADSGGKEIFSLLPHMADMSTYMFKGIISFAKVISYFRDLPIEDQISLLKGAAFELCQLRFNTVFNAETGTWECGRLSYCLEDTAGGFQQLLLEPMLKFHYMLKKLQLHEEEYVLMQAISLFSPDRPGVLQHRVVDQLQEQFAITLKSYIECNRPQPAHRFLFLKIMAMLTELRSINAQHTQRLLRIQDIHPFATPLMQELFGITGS
Description: Study Protocol to Determine Activation of the PXR Nuclear Receptor in Human DPX2 Cells
Based on this pathway of CYP3A4 induction, cell-based PXR reporter gene assay is commonly used to screen new molecular entities (NMEs) in early drug discovery stage, for their potential to induce CYP3A4 (Luo G, et al.; Drug Metab Dispos. 2002 July; 30(7):795-804.) Studies were designed to evaluate the effect of new molecular entities (NMEs) on the activation of human PXR in DPX2 cells. Cell lines stably transfected with the PXR nuclear receptor and corresponding response elements were seeded into 96-well plates. Twenty-four hr after seeding, cells were treated with 6 distinct concentrations of NMEs in triplicate wells (see below), and cells then returned to the incubator for an additional 24 hr. At the end of this incubation period, the number of viable cells/well were determined using Promega's Cell Titer Fluor cytotoxicity assay. Following this assay, Promega's ONE-Glo was added to the same wells and reporter gene activity assessed.
The test system consisted of the stably transformed DPX2 tumor cell line plated on 96-well microtiter plates. An expression vector harboring the PXR nuclear receptor plus the appropriate enhancers and promoters linked to the luciferase reporter gene have been stably integrated into these tumor cell lines. Receptor activation was assessed by monitoring reporter gene activity, and by comparing the results to vehicle-treated cells. Positive controls consist of cells treated with 6 different concentrations (0.1, 0.5, 1, 5, 10, and 20 μM) of rifampicin. In this manner, compounds activating PXR can be easily and rapidly identified. Since stably-integrated cell lines were used, it is possible to observe from 3- to 70-fold receptor activation.
Data processed using MS-Excel was calculated as the mean (n=3) and % CV of the fold PXR activation relative to vehicle-treated cells at each of the 6 different doses. All activation data was normalized to the number of viable cells/well. Results were also expressed as a percentage of the response given by the appropriate positive control at a 10 μM dose. EC50 and Emax values were derived for test compounds that give receptor activation using nonlinear regression of typical log dose-response curves (Prism V5.0c, GraphPad Software, San Diego, Calif.).
d) New Molecular Entities (NMEs): Test Compounds were Tested at 0.05, 0.1, 0.5, 1, 2.5, and 10 μM

[1] = target: T3, hERG (human ether-à-go-go-related gene) potassium channel (Homo sapiens, UniProt Q12809); assay: FastPatch hERG inhibition assay (QPatch HT, HEK293 cells stably transfected with hERG cDNA); type: cell-based; settings: for IC50: HEK293 cells, automated patch clamp, IC50 estimated from hERG inhibition data
T3 construct: host or cells: HEK293
T3 sequence (Q12809 whole entry): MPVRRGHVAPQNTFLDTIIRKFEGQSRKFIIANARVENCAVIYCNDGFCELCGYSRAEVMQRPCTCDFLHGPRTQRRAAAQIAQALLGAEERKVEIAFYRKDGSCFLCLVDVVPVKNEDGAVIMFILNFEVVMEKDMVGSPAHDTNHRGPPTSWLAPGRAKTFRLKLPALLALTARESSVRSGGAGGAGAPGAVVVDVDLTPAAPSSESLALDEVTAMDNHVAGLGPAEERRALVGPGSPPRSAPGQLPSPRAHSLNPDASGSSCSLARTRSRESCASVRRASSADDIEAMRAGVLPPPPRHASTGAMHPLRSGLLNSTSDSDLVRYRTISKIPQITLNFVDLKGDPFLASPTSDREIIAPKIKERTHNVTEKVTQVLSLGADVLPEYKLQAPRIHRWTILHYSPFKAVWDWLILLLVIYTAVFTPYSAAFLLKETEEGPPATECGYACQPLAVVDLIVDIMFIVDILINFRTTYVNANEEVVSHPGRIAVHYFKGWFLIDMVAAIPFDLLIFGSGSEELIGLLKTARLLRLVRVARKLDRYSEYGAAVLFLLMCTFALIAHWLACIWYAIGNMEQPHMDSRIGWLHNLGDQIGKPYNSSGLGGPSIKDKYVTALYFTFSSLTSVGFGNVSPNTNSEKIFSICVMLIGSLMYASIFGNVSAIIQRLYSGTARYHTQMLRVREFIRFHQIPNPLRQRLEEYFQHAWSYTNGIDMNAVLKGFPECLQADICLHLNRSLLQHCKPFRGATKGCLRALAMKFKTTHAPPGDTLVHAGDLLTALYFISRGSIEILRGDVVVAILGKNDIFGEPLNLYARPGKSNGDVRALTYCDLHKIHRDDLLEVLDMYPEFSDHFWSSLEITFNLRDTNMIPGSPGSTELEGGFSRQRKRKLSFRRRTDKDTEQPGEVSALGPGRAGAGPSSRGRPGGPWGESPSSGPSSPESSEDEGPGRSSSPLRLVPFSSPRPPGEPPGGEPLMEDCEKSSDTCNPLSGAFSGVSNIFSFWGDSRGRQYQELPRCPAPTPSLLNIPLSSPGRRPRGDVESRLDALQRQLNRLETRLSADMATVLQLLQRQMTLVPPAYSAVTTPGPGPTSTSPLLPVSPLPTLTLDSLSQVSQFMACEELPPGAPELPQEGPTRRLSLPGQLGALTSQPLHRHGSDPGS
Description: (§1) Protocol for FastPatch hERG Inhibition Assay:
(§2) The cardiac potassium channel, hERG, is responsible for a rapid delayed rectifier current (IKr) in human ventricle and inhibition of IKr is the most common cause of cardiac action potential prolongation by non-cardiac drugs (see, e.g., Weirich and Antoni, Basic Res. Cardiol., 93, Suppl. 1, 125-32, 1998; Yap and Camm, Clin. Exp. Allergy, 29, Suppl. 3, 174-81, 1999). Increased action potential duration has been cited as a factor in causing prolongation of the QT interval that has been associated with a dangerous ventricular arrhythmia, torsade de pointes (Brown and Rampe, Pharmaceutical News, 7, 15-20, 2000).
(§3) The in vitro effects of provided compounds was investigated on the hERG (human ether-à-go-go-related gene) potassium channel current (a surrogate for IKr, the rapidly activating, delayed rectifier cardiac potassium current) expressed in human embryonic kidney (HEK293) cells stably transfected with hERG cDNA. Cells were placed in HEPES-buffered physiological saline solution in a glass-lined 96-well plate and loaded with appropriate amounts of test and control solutions for a duration of a 3-minute exposure at each concentration. Test compound was diluted in 0.3% DMSO. An automated parallel patch clamp system, QPatch HT (Sophion Bioscience A/S, Denmark), was used to evaluate at various concentrations (e.g., 10 μM). The IC50 values was estimated based on the hERG inhibition data. The study was performed at ChanTest (14656 Neo Parkway, Cleveland, Ohio). The QPatch screen is further described by Janzen and Bernasconi (eds.), High Throughput Screening, Methods and Protocols, Second Edition, vol. 565, chapter 10, pg. 209-223, 2009.

hERG potassium channel = target: T4, hERG potassium channel (Homo sapiens, UniProt Q12809); assay: as above; type: cell-based; settings: human, HEK293 cells stably transfected with hERG cDNA; 10 uM, HEK293 cells, automated patch clamp
T4 construct: host or cells: HEK293
T4 sequence (Q12809 whole entry): as above
Description: as §1, §2, §3

T1 sequence (Q06187 whole entry): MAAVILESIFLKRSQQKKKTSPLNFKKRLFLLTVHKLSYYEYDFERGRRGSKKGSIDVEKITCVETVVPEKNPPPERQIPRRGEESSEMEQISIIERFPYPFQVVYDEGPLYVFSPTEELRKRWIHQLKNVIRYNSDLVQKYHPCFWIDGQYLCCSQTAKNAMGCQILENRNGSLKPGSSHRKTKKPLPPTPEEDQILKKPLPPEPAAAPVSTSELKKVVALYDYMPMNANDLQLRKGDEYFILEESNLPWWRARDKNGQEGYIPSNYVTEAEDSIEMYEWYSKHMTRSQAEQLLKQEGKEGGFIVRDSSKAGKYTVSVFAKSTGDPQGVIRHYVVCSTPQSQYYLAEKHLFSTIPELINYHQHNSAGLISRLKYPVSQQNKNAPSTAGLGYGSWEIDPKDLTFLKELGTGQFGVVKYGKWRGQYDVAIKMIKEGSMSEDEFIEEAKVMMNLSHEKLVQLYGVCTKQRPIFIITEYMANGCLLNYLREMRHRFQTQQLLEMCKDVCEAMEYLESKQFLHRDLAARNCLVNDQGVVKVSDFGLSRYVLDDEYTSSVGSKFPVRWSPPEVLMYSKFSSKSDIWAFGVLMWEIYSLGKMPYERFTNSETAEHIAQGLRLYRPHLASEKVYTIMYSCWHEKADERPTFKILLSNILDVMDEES

IC50 (BTK) [nM] | PXR % induction (relative to 10 uM rifampin) (human PXR) [%] | Structure (SMILES) | observable activity in the hERG assay at 10 uM ([1]; 10 uM, no IC50 available) | IC50 [1] [nM] | inhibition at 3 min, 10 µM (hERG potassium channel) [%]
1.6 | 90 | NC(=O)[C@H]1CCN(c2ncnc(N)c2F)C[C@@H]1N1CCC[C@@H](Nc2cc(F)cc(C(F)(F)F)c2)C1=O [Compound I-5, (3R,3′R,4′S)-1′-(6-amino-5-fluoropyrimidin-4-yl)-3-((3-fluoro-5-(trifluoromethyl)phenyl)amino)-2-oxo-[1,3′-bipiperidine]-4′-carboxamide] | no observable activity | – | –
0.68 | 42 | NC(=O)[C@H]1CCN(c2ncnc(N)c2F)C[C@@H]1N1CCC[C@@H](Nc2cc(F)cc(Cl)c2)C1=O [Compound I-2] | – | 30000 | –
0.63 | 67 | CNC(=O)[C@H]1CCN(c2ncnc(N)c2F)C[C@@H]1N1CCC[C@@H](Nc2cc(Cl)cc(C(F)(F)F)c2)C1=O [Compound I-4] | – | 13700 | –
2.07 | 47 | CN(C)C(=O)[C@H]1CCN(c2ncnc(N)c2F)C[C@@H]1N1CCC[C@@H](Nc2cc(Cl)cc(C(F)(F)F)c2)C1=O [Compound I-3, (3R,3′R,4′S)-1′-(6-amino-5-fluoropyrimidin-4-yl)-3-((3-chloro-5-(trifluoromethyl)phenyl)amino)-N,N-dimethyl-2-oxo-[1,3′-bipiperidine]-4′-carboxamide] | – | 14600 | –
< 1 | – | NC(=O)[C@H]1CCN(c2ncnc(N)c2F)C[C@@H]1N1CCC[C@@H](Nc2cc(Cl)cc(OC(F)(F)F)c2)C1=O [Compound I-6] | – | – | < 20
0.73 | 62 | NC(=O)[C@H]1CCN(c2ncnc(N)c2F)C[C@@H]1N1CCC[C@@H](Nc2cc(Cl)cc(C(F)(F)F)c2)C1=O [Compound I-1, (3R,3′R,4′S)-1′-(6-amino-5-fluoropyrimidin-4-yl)-3-((3-chloro-5-(trifluoromethyl)phenyl)amino)-2-oxo-[1,3′-bipiperidine]-4′-carboxamide] | – | 15600 | –
2 | 95 | Nc1ncnc(N2CCC[C@@H](N3CCC[C@@H](Nc4cc(Cl)cc(C(F)(F)F)c4)C3=O)C2)c1F [I^C, reference compound] | – | 1180 | 87
1.2 | – | CN1CCN(C(=O)[C@H]2CCN(c3ncnc(N)c3F)C[C@@H]2N2CCC[C@@H](Nc3cc(Cl)cc(C(F)(F)F)c3)C2=O)CC1 [Compound I-7] | – | – | 65
